Assay results as given in US6977259B2, “Quinoline derivatives and their use as aurora 2 kinase inhibitors” (AstraZeneca AB, priority 2000, dated 2005).

What was measured:
[1] = target: T1, aurora2 kinase (Homo sapiens, UniProt O14965); assay: In vitro aurora2 kinase inhibition test; type: biochemical
T1 construct: made in house; host or cells: Spodoptera frugiperda Sf21 insect cells (baculovirus, pFastBac HTc)
T1 sequence (O14965 1-403): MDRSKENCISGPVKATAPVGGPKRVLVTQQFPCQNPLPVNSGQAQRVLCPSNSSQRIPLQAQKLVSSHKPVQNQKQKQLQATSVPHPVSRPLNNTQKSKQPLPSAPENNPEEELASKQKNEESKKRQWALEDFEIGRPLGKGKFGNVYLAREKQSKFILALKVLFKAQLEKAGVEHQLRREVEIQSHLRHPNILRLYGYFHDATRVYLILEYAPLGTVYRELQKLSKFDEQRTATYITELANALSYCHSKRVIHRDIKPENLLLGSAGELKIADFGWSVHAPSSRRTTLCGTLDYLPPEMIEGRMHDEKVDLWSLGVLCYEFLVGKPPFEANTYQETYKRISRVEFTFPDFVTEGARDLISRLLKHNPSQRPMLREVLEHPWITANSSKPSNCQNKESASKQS

[2] = tested on: MCF-7 cells; assay: In vitro cell proliferation assay 1 (CyQUANT cell density); type: cell-based; conditions: Homo sapiens, MCF7, 72 h; MCF-7, 3 days with compound, CyQUANT fluorescence; read-out: concentration giving 50% inhibition of cell proliferation
Source text: (§1) (b) In Vitro Cell Proliferation Assays
(§2) These and other assays can be used to determine the ability of a test compound to inhibit the growth of adherent mammalian cell lines, for example the human tumour cell line MCF7.
MCF-7 (ATCC HTB-22) or other adherent cells were typically seeded at 1×10^3 cells per well (excluding the peripheral wells) in DMEM (Sigma Aldrich) without phenol red, plus 10% foetal calf serum, 1% L-glutamine and 1% penicillin/streptomycin in 96 well tissue culture treated clear plates (Costar). The following day (day 1), the media was removed from a no treatment control plate and the plate stored at −80° C. […] The fluorescence of the wells was then measured using a fluorescence microplate reader (gain 70, 2 reads per well, 1 cycle with excitation 485 nm and emission 530 nm using a CytoFluor plate reader (PerSeptive Biosystems Inc.)). […]

[3] = tested on: MCF-7 cells; assay: In vitro cell proliferation assay II (BrdU incorporation); type: cell-based; conditions: Homo sapiens, MCF7; MCF-7, 48 hours with compound, 2 hour BrdU labelling, ELISA; read-out: concentration giving 50% inhibition of BrdU incorporation
Source text: as §1, §2
This assay determines the ability of at test compound to inhibit the incorporation of the thymidine analogue, 5′-bromo-2′-deoxy-uridine (BrdU) into cellular DNA. MCF-7 or other adherent cells were typically seeded at 0.8×10^4 cells per well in DMEM (Sigma Aldrich) without phenol red, plus 10% foetal calf serum, 1% L-glutamine and 1% penicillin/streptomycin (50 μl/well) in 96 well tissue culture treated 96 well plates (Costar) and allowed to adhere overnight. […] The optical density of the wells was then determined at 690 nm wavelength using a Titertek Multiscan plate reader. […]

Compound	IC50 [1] [nM]	IC50 [2] [nM]	IC50 [3] [nM]
COc1cc2c(Nc3cnc(NC(=O)c4ccccc4)nc3)ccnc2cc1OCCCN1CCOCC1 [Compound 2]	59.2	456	460
O=C(Nc1ncc(Nc2ccnc3cc(OCCCN4CCOCC4)ccc23)cn1)c1ccccc1 [Compound 4]	78.5	185	190
